Measured values: patent US20170342451A1, “BIOSYNTHESIS OF PACLITAXEL INTERMEDIATE” (Board of Trustees of Michigan State University, priority 2012, published 2017)
Where two headings read alike, the source gives them in different places.

What was measured:
TycA-S563A [1] = molecular target: T1, TycA-S563A (Brevibacillus parabrevis, UniProt P09095, S563A); conditions: CoA with (S)-α-Phe as cosubstrate; for kcat^CoA: turnover with CoA at apparent saturation
Protocol: Under steady-state conditions, (S)-α-phenylalanine, (R)-β-phenylalanine, and (2R,3S)-phenylisoserine at 5, 10, 20, 40, 80, 160, 250, 500, 1000 and 2000 μM were separately incubated with TycA or TycA-S563A (20 μg) for 30 min. At the end of each reaction, and prior to mass spectrometry analysis, acetyl CoA (1 μM) was added as the internal standard to each sample to correct for variations of the analyte. The products of the enzyme-catalyzed reaction were quantified by a liquid chromatography multiple reaction monitoring (LC-ESI-MRM) mass spectrometry technique (Anderson & Hunter, Mol. Cell. Proteomics 5: 573-588 (2006)) on the Quattro-Premier Electro-Spray Mass Spectrometer coupled with Acquity® UPLC system fitted with a C18 Ascentis Express column (2.5×50 mm, 2.7 μm) at 30° C. An aliquot (5 μL) of each sample was loaded onto the column and the analytes were eluted with a solvent gradient of acetonitrile (Solvent A) in 0.05% triethylamine in distilled water (Solvent B). Elution was held at 2.5% Solvent A for 3.17 min, increased to 100% Solvent A over 5 sec with a 2-min hold, and then returned to 2.5% Solvent A over 5 sec with a 50-sec hold. The flow rate employed was 0.4 mL/min. The effluent from the chromatography column was directed to the mass spectrometer where the first quadrupole mass analyzer (in negative ion mode) was set to select for the molecular ion of a biosynthesized acyl CoA product. […]
The KM values of TycA and TycA-S563A for CoA were assessed by incubating each enzyme separately with (S)-α-phenylalanine (1 mM), MgCl2 (3 mM), ATP (1 mM), and CoA at 0.05, 0.1, 0.2, 0.4, 0.8, 1.6, 3.2, 6.4, 12.8 and 25.6 mM at 31° C. for 20 min. […] The products of the enzyme-catalyzed reaction were quantified by LC-ESI-MRM, and the monitored fragment ion (m/z 408) derived from the CoA moiety of the thioester analytes in the effluent was quantified identically to the procedure described earlier herein.

TycA-S563A [2] = molecular target: T1, TycA-S563A; conditions: for kcat^NAC: TycA-S563A with NAC at apparent saturation
Protocol: Substrates (S)-α-phenylalanine, (R)-β-phenylalanine, and (2R,3S)-phenylisoserine (each at 1 mM) were separately incubated with TycA or TycA-S563A (20 μg) in the presence of N-acetylcysteamine (NAC; 1 mM), ATP (1 mM), and Mg^2+ (3 mM) to establish steady-state conditions with respect to protein concentration and time at 31° C. Under steady-state conditions, either (S)-phenylalanine, (R)-β-phenylalanine, or (2R,3S)-phenylisoserine at 5, 10, 20, 40, 80, 160, 250, 500, 1000 and 2000 μM was separately incubated with TycA or TycA-S563A (20 μg), ATP (1 mM), Mg^2+ (3 mM), and N-acetylcysteamine (1 mM, ‘NAC’) in duplicate, single stopped-time ([…]) 100 μL assays. The reactions were quenched by acidification to a pH of about 2 (10% formic acid in distilled water). (N-Boc)-α-phenylalanyl-SNAC (1 μM) was added as an internal standard when (S)-α-phenylalanine or (2,3)-phenylisoserine was used as the substrate; alternatively, (N-Boc)-β-phenylalanyl-SNAC (1 μM) was added as an internal standard when (R)-β-phenylalanine was used as the substrate (the synthesis is described below). The samples were analyzed on a Quattro-Premier Electro-Spray Mass Spectrometer coupled with Acquity® UPLC system fitted with a C18 Ascentis Express column (2.5×50 mm, 2.7 μm) at 30° C. An aliquot (5 μL) of each sample was loaded onto the column and the analytes were eluted with a solvent gradient of […] 0.05% triethylamine in distilled water (Solvent B) (held at 2.5% Solvent A for […], increased to 100% A over 5 sec with a 2-min hold, and then returned to 2.5% Solvent A over 5 sec with a 50-sec hold) at a flow rate of 0.4 mL/min. In brief, the effluent from the chromatography column was directed to the Quattro Premier ESI mass spectrometer, in MRM scan mode, to quantify the biosynthetic acyl SNAC products. The transition ions derived from the corresponding molecular ions were m/z 120.06, 131.10 and 105.95 for (S)-α-phenylalanyl-SNAC, (R)-β-phenylalanyl-SNAC and (2R,3S)-phenylisoserinyl-SNAC, respectively. A standard curve was used to convert the peak area under the curve of the monitored fragment ion to concentration for each biosynthetic phenylpropionyl SNAC.
Authentic (5)-α-phenylalanyl, (R/S)-β-phenylalanyl- and (2R,3S)-phenylisoserinyl-SNAC were used to construct the standard curves by correlating the peak area under the curve of the monitored ion to concentration of the standard (at 0.16, 0.32, 0.64, 1.3, 2.5, 5, 10, 20, 40, 80, 160 and 320 μM) using linear regression analysis.
The KM values of TycA and TycA-S563A for N-acetylcysteamine (NAC) was assessed by incubating each enzyme separately with (S)-α-phenylalanine (1 mM), MgCl2 (3 mM), ATP (1 mM), and N-acetylcysteamine at 5, 10, 20, 40, 80, 160, 250, 500, 1000 and 2000 μM at 31° C. for 20 min. The reactions were quenched by acidification to a pH of about 2 (10% formic acid in distilled water), and an internal standard, (N-Boc)-α-phenylalanyl-SNAC (1 μM), was added to each sample to correct for variations of the analyte. The [S-(acyl)-N-(acetyl)]cysteamine (SNAC) thioester products of the enzyme-catalyzed reaction were quantified by a liquid chromatography multiple reaction monitoring (MRM) mass spectrometry technique, and the monitored fragment ion (m/z 120) derived from the SNAC moiety of thioester analyte in the effluent was quantified identically to the procedure described earlier.

[3] = NAC with (S)-α-Phe as cosubstrate

T1 sequence (P09095 other isoform, or with tags, fused parts or gaps S563A): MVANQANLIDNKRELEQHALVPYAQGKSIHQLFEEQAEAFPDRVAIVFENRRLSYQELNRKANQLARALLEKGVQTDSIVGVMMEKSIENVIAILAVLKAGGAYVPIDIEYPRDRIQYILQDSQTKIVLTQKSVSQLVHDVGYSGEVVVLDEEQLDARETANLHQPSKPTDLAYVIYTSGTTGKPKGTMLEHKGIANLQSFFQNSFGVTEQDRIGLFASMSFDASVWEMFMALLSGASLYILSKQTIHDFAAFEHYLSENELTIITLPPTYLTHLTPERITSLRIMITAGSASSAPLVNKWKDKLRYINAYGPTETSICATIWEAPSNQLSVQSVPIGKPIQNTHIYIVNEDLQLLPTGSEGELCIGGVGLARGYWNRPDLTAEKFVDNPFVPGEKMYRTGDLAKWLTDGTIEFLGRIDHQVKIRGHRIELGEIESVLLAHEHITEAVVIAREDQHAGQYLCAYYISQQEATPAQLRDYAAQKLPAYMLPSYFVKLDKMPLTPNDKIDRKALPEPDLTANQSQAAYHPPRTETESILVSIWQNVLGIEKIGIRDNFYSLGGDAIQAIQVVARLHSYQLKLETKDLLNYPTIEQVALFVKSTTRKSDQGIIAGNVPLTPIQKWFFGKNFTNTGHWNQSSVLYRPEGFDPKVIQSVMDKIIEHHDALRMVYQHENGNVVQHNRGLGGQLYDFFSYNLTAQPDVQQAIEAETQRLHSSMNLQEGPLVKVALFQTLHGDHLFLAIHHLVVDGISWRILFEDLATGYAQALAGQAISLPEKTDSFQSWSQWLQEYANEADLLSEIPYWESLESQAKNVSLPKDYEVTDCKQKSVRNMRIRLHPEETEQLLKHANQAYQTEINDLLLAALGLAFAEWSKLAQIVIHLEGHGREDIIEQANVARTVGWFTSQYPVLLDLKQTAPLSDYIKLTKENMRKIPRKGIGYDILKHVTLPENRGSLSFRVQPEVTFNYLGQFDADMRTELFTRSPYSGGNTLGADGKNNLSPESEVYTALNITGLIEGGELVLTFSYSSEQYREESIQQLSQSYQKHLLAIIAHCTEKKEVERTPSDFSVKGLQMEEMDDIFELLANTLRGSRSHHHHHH

Row | Structure (SMILES) | kcat^CoA (TycA-S563A [1]) [s⁻¹] | decrease in turnover, TycA-S563A compared to TycA (TycA-S563A [2]; NAC cosubstrate) [fold] | increase in KM, TycA-S563A compared to TycA (TycA-S563A [2]; NAC cosubstrate) [fold] | lower catalytic efficiency of TycA-S563A compared to that of TycA (TycA-S563A [2]; NAC cosubstrate) [fold] | kcat^NAC (TycA-S563A [2]; [3]) [s⁻¹] | Km (TycA-S563A [1]; CoA 1 mM, ATP 1 mM, MgCl2 3 mM, 31° C.) [µM] | Km (TycA-S563A [2]; TycA-S563A with NAC, NAC with (S)-α-Phe as cosubstrate) [µM]
1 | N[C@H](CC(=O)O)c1ccccc1 [(R)-β-Phe, (R)-β-phenylalanine] | 0.05 ± 0.00067 | 15 | ~2 | ~30 | 0.0004 ± 1.7e-05 |  | 
2 | N[C@@H](c1ccccc1)[C@@H](O)C(=O)O [(2R,3S)-PheIso, (2R,3S)-phenylisoserine] | 0.00717 ± 0.00017 |  |  |  | 0.00517 ± 0.00083 | 191 ± 10 | 512 ± 43
